Experimental data as given in patent publication US7355074B2, “Compounds having aromatic rings and side-chain amide-functionality and a method for transporting monovalent anions across biological membranes using the same” (The University of Maryland, priority 2003, dated 2008).

Legend:
[1] = 1H NMR binding experiment in CDCl3, HCl extraction
Experimental: FIG. 7 illustrates a series of […] spectra (400 mHz, CDCl3, 22° C.) of calixarene tetrabutylamide in the presence of different species: (A) the compound alone (5 mm); (B) the compound with 1 equiv. of Bu4 NCl; (C) the compound after washing CDCl3 solution of the compound with an aqueous solution of 0.5 m HCl; (D) after washing CDCl3 solution of the compound with an aqueous solution of 0.5 M H2SO4.
To obtain evidence for Cl^− binding by 2, ^1H NMR experiments were run in CDCl3 using n-Bu4-NCl and HCl as Cl^− sources. Anion receptors usually show chemical shift perturbation upon anion complexation, particularly for amide NH protons that hydrogen bond to the anion. […] Calix[4]arene tetrabutylamide 2 does, however, bind HCl. Thus, shaking a CDCl3 solution of 2 with aqueous HCl led to disappearance of the amide NH proton and a significant upfield shift of the […] protons (FIG. 4c).

[2] = sodium picrate extraction in CDCl3 monitored by 1H NMR; format: binding
Experimental: FIG. 9 ^1H NMR spectrum (400 MHz, CDCl3, 22° C.) of (A) calixarene octabutylamide (5 mM) in CDCl3, (B) the same compound after addition of 1 equiv. of NaPic. (C) the same compound after addition of 2 equiv. of NaPic.
The secondary amide NH and the core aromatic ring framework, in this case the calix[4]arene framework, are essential for the HCl transport activity of 2. Calix[4]arene octabutylamide 3 was used as a negative control for tetrabutylamide 2, as the lack of amide NH protons in 3 would preclude Cl^− binding. Instead, 3 should be a cation ionophore, much like tetrakis(diethylcarbamoylmethoxy)-p-tert-butylcalix[4]arene-1,3-alt that coordinates cations in the solid-state and solution. To confirm that 3 binds Na^+, sodium picrate extraction in CDCl3 was monitored by ^1H NMR spectroscopy. Complexation of the salt by 3 was evident. Two distinct complexes were formed, corresponding to a 1:1 and a 2:1 Na^+:3 stoichiometry. The 1:1 complex was generated by adding 1 equiv of solid sodium picrate to a solution of 3. Binding this Na^+ led to a symmetry loss for 3, indicated by doubling of the ^1H NMR peaks. […] In contrast, sodium picrate extraction by calix[4]arene tetrabutylamide 2 was not detected by ^1H NMR spectroscopy.

[3] = pH-stat fluorescent transport assay with oligophenoxyacetamides (HPTS-loaded liposomes); format: biochemical
Experimental: FIGS. 1A and 1B are derived from of pH-stat fluorescent assays with oligophenoxyacetamide compounds 1-6 described herein. Suspensions of EYPC LUVs containing the pH sensitive dye pyranine (ex 405 nm and 460 nm em 510 nm) in a phosphate buffer were used (0.5 mM of lipid, 10 mM NanH3-nPO4 n=1, 2, pH 6.4 100 mM NaCl inside and outside) (A) illustrates initial pseudo-first order rate constants in the presence of 5 μm of ionophores 1-6 (1 mol % injection of 20 μl of 0.5 mM DMSO solution of 1-6 into 1.9 mL of vesicular suspension was followed by injection of 21 μl of 0.5 M NaOH and final lysis of liposomes with Triton X-100; (B) illustrates initial pseudo-first order rate constants assessed for various concentrations of oligomeric ionophores 2-6. The same experimental protocol as in (A) was used. Legend for traces denotes use of oligocompounds 2, 3, 4, 5, 6.
Liposome Preparation for Fluorimetric Assays. Egg yolk L-α-phosphatidylcholine (EYPC ethanol solution, […], 79 μmol) was dissolved in a CHCl3/MeOH mixture, the solution was evaporated under reduced pressure and the resulting thin film was dried under high vacuum for 2 h. The lipid film was hydrated in 1.2 mL of phosphate buffer (10 mM sodium phosphate, pH=6.4, 75-100 mM MnX, M=N^+, K^+, X=Cl^−, SO4^2−, n=1,2) containing 10 μM HPTS (pyranine, 8-hydroxypyrene-1,3,6-trisulfonic acid trisodium salt) for 40 min. During hydration, the suspension was submitted to 5 freeze-thaw cycle (liquid nitrogen, water at rt). The large multilamellar liposome suspension (1 mL) was submitted to high-pressure extrusion at rt (21 extrusions through a 0.1 μm polycarbonate membrane afforded a suspension of LUVs with an average diameter of 100 nm). The LUV suspension was separated from extravesicular dye by size exclusion chromatography (SEC) (stationary phase: Sephadex G-10, mobile phase: phosphate buffer) and diluted with the same phosphate buffer to give a stock solution with a lipid concentration of 11 mM (assuming 100% of lipid was incorporated into liposomes).
pH-state transport assays. Typically, 100 μL of HPTS-loaded vesicles (stock solution) was suspended in 1.9 mL of the corresponding buffer and placed into a fluorimetric cell. The emission of HPTS at 510 nm was monitored with excitation wavelengths at 403 and 460 nm simultaneously. During the experiment, 20 μL of a 0-10 mM DMSO solution of the compounds of interest was added (through an injection port), followed by injection of 21 μL of 0.5 M aqueous NaOH. […] Maximal possible changes in dye emission were obtained at the end of each experiment by lysis of the liposomes with detergent (40 μL of 5% aqueous Triton X100). The final transport trace was obtained as a ratio of the emission intensities monitored at 460 and 403 nm and normalized to 100% of transport. Pseudo-first order rate constants were calculated from slopes of the plot of In([H^+ins]−[H^+out]) versus time, here [H^+ins] and [H^+out] are the intravesicular and extravesicular proton concentrations, respectively. The [H^+out] was assumed to remain constant over the course of the experiment, while [H^+ins] values were calculated for each point from the HPTS emission intensities according to the calibration equation pH=1.1684·log(Io/Il)+6.9807, where Io is the emission intensity with excitation at 460 nm and Il is emission intensity with excitation at 403 nm. The calibration was performed by measuring the HPTS emission intensities and the pH values of a […] HPTS solution in 10 mM phosphate buffer containing 100 mM NaCl (see FIG. s3). The absolute values for rate constants varied depending on the age of the vesicular solution and the actual stock solution of liposomes used.

HCl binding [1] | SMILES | sodium picrate extraction [2] | relative transport activity within the series 1-6 ([3]; 100 mM NaCl inside and outside) | transport activity ([3]; 100 mM NaCl inside and outside, concentrations as low as 0.5 mol % (5 μm)) | transport activity in liposomes symmetrically loaded with sodium sulfate ([3]; 10 mol % (50 μm))
binds HCl | CCCCNC(=O)COc1c2cccc1Cc1cccc(c1OCC(=O)NCCCC)Cc1cccc(c1OCC(=O)NCCCC)Cc1cccc(c1OCC(=O)NCCCC)C2 [calix[4]arene tetrabutylamide 2, Calix[4]arene tetrabutylamide] | not detected | – | – | –
– | CCCCNC(=O)COc1ccccc1Cc1cccc(Cc2ccccc2OCC(=O)NCCCC)c1OCC(=O)NCCCC [trimer 3, Tris-(N-butyl-2-phenoxyacetamide)] | – | generally the most active | rapid exchange between extra- and intravesicular electrolytes | no transport activity was detected
